# Experimental data taken from ChEMBL document CHEMBL5215001, “Diaporisoindole B Reduces Lipid Accumulation in THP-1 Macrophage Cells via MAPKs and PPARγ-LXRα Pathways and Promotes the Reverse Cholesterol Transport by Upregulating SR-B1 and LDLR in HepG2 Cells” (J Nat Prod, 2022).
# Calls of active or inactive are those of the source. The calls are words filed in the database; no cut-off is given here.
# Key:
# THP-1 [1] = assay: Inhibition of foam cells formation in human THP-1 cells assessed as upregulation of ABCG1 protein expression at 2.5 to 15 uM by Western blot analysis; assay type: functional, cell-based; conditions: dose 2.5-15 µM
# THP-1 [2] = assay: Inhibition of ox-LDL induced lipid accumulation in human THP-1 cells assessed as increase in cholesterol efflux rate incubated for 24 hrs by liquid scintillation counting analysis; assay type: functional, cell-based; conditions: dose 2.5-15 µM, DDE = dose-dependent effect
# THP-1 [3] = assay: Inhibition of ox-LDL induced lipid accumulation in human THP-1 cells assessed as reduction oxidized LDL uptake at 2.5 to 15 uM incubated for 4 hrs by Hoechst 33258 dye based confocal microscopic analysis; assay type: functional, cell-based; conditions: dose 2.5-15 µM
# HepG2 [4] = assay: Inhibition of ox-LDL induced lipid accumulation in human HepG2 cells assessed as reduction in total cholesterol level at 2.5 to 15 uM; assay type: functional, cell-based; conditions: dose 2.5-15 µM
# THP-1 [5] = assay: Inhibition of ox-LDL uptake in human THP-1 foam cells assessed as downregulation of CD36 expression by measuring reduction in total p38 protein expression at 2.5 to 15 uM by Western blot analysis; assay type: functional, cell-based; conditions: dose 2.5-15 µM
# THP-1 [6] = assay: Inhibition of foam cells formation in human THP-1 cells assessed as reduction in CD36 mRNA expression at 2.5 to 15 uM by RT-PCR analysis; assay type: functional, cell-based; conditions: dose 2.5-15 µM
# HepG2 [7] = assay: Reduction in triglyceride level in human HepG2 cells assessed as reduction in FAS protein expression by Western blot analysis; assay type: functional, cell-based; conditions: dose 2.5-15 µM, DDE = dose-dependent effect
# HepG2 [8] = assay: Downregulation of SREBP1c mRNA expression in human HepG2 cells at 2.5 to 15 uM by qRT-PCR analysis; assay type: functional, cell-based; conditions: dose 2.5-15 µM
# THP-1 [9] = assay: Inhibition of ox-LDL uptake in human THP-1 foam cells assessed as downregulation of CD36 expression by measuring reduction in total JNK protein expression at 2.5 to 15 uM by Western blot analysis; assay type: functional, cell-based; conditions: dose 2.5-15 µM
# THP-1 [10] = assay: Inhibition of ox-LDL uptake in human THP-1 foam cells assessed as downregulation of CD36 expression by measuring reduction in MAPK mRNA expression at 2.5 to 15 uM by qRT-PCR analysis; assay type: functional, cell-based; conditions: dose 2.5-15 µM
# THP-1 [11] = assay: Induction of lipid efflux in human THP-1 cells assessed as upregulation of PPARgamma protein expression at higher concentrations by Western blot analysis; assay type: functional, cell-based
# THP-1 [12] = assay: Cytotoxicity against human THP-1 cells assessed as inhibition of cell growth at 0 to 15 uM incubated for 24 hrs by CCK-8 assay; assay type: toxicity, cell-based; conditions: thp-1, 24 h, dose 0-15 µM
# HepG2 [13] = assay: Induction of reverse cholesterol transport in human HepG2 cells assessed as increase in SR-B1 mRNA expression by qRT-PCR analysis; assay type: functional, cell-based; conditions: dose 2.5-15 µM, DDE = dose-dependent effect
# THP-1 [14] = assay: Inhibition of foam cells formation in human THP-1 cells assessed as upregulation of ABCA1 mRNA expression at 2.5 to 15 uM by RT-PCR analysis; assay type: functional, cell-based; conditions: dose 2.5-15 µM
# HepG2 [15] = assay: Reduction in cholesterol biosynthesis in human HepG2 cells assessed as reduction in HMGCR mRNA expression at 2.5 to 15 uM by qRT-PCR analysis; assay type: functional, cell-based; conditions: dose 2.5-15 µM
# THP-1 [16] = assay: Induction of lipid efflux in human THP-1 cells assessed as upregulation of PPARgamma mRNA expression by qRT-PCR analysis; assay type: functional, cell-based; conditions: dose 2.5-15 µM, DDE = dose-dependent effect
# THP-1 [17] = assay: Induction of lipid efflux in human THP-1 cells assessed as upregulation of LXRalpha protein expression at higher concentrations by Western blot analysis; assay type: functional, cell-based
# HepG2 [18] = assay: Reduction in triglyceride level in human HepG2 cells assessed as reduction in ACC protein expression by Western blot analysis; assay type: functional, cell-based; conditions: dose 2.5-15 µM, DDE = dose-dependent effect
# THP-1 [19] = assay: Inhibition of ox-LDL induced lipid accumulation in human THP-1 cells assessed as reduction in intracellular lipid droplets at 2.5 to 15 uM by oil red O staining based inverted microscopic analysis; assay type: functional, cell-based; conditions: dose 2.5-15 µM
# HepG2 [20] = assay: Induction of reverse cholesterol transport in human HepG2 cells assessed as increase in SR-B1 protein expression by Western blot analysis; assay type: functional, cell-based; conditions: dose 2.5-15 µM, DDE = dose-dependent effect
# HepG2 [21] = assay: Induction of reverse cholesterol transport in human HepG2 cells assessed as reduction in PCSK9 protein expression at 2.5 to 15 uM by Western blot analysis; assay type: functional, cell-based; conditions: dose 2.5-15 µM
# THP-1 [22] = assay: Inhibition of ox-LDL uptake in human THP-1 foam cells assessed as downregulation of CD36 expression by measuring reduction in pJNK protein expression at 2.5 to 15 uM by Western blot analysis; assay type: functional, cell-based; conditions: dose 2.5-15 µM
# THP-1 [23] = assay: Inhibition of foam cells formation in human THP-1 cells assessed as upregulation of SR-B1 mRNA expression at 2.5 to 15 uM by RT-PCR analysis; assay type: functional, cell-based; conditions: dose 2.5-15 µM
# HepG2 [24] = assay: Cytotoxicity against human HepG2 cells assessed as inhibition of cell growth at 0 to 15 uM incubated for 24 hrs by CCK-8 assay; assay type: toxicity, cell-based; conditions: hepg2, 24 h, dose 0-15 µM
# HepG2 [25] = assay: Reduction in triglyceride level in human HepG2 cells assessed as reduction in ACC mRNA expression by qRT-PCR analysis; assay type: functional, cell-based; conditions: dose 2.5-15 µM, DDE = dose-dependent effect
# HepG2 [26] = assay: Reduction in triglyceride level in human HepG2 cells assessed as reduction in FAS mRNA expression by qRT-PCR analysis; assay type: functional, cell-based; conditions: dose 2.5-15 µM, DDE = dose-dependent effect
# THP-1 [27] = assay: Inhibition of foam cells formation in human THP-1 cells assessed as upregulation of ABCA1 protein expression at 2.5 to 15 uM by Western blot analysis; assay type: functional, cell-based; conditions: dose 2.5-15 µM
# THP-1 [28] = assay: Inhibition of foam cells formation in human THP-1 cells assessed as reduction in CD36 protein expression at 2.5 to 15 uM by Western blot analysis; assay type: functional, cell-based; conditions: dose 2.5-15 µM
# HepG2 [29] = assay: Inhibition of ox-LDL induced lipid accumulation in human HepG2 cells assessed as reduction in total triglyceride level at 2.5 to 15 uM; assay type: functional, cell-based; conditions: dose 2.5-15 µM
# HepG2 [30] = assay: Induction of reverse cholesterol transport in human HepG2 cells assessed as upregulation of LDLR protein expression by Western blot analysis; assay type: functional, cell-based; conditions: dose 2.5-15 µM, DDE = dose-dependent effect
# THP-1 [31] = assay: Inhibition of foam cells formation in human THP-1 cells assessed as upregulation of SR-B1 protein expression at 2.5 to 15 uM by Western blot analysis; assay type: functional, cell-based; conditions: dose 2.5-15 µM
# THP-1 [32] = assay: Inhibition of ox-LDL induced lipid accumulation in human THP-1 cells assessed as reduction in total triglyceride level at 2.5 to 15 uM; assay type: functional, cell-based; conditions: dose 2.5-15 µM
# THP-1 [33] = assay: Inhibition of ox-LDL uptake in human THP-1 foam cells assessed as downregulation of CD36 expression by measuring reduction in total ERK protein expression at 2.5 to 15 uM by Western blot analysis; assay type: functional, cell-based; conditions: dose 2.5-15 µM
# HepG2 [34] = assay: Downregulation of SREBP1c protein expression in human HepG2 cells at 2.5 to 15 uM by Western blot analysis; assay type: functional, cell-based; conditions: dose 2.5-15 µM
# HepG2 [35] = assay: Downregulation of SREBP2 mRNA expression in human HepG2 cells at 2.5 to 15 uM by qRT-PCR analysis; assay type: functional, cell-based; conditions: dose 2.5-15 µM
# THP-1 [36] = assay: Inhibition of ox-LDL induced lipid accumulation in human THP-1 cells assessed as reduction in total cholesterol level at 2.5 to 15 uM; assay type: functional, cell-based; conditions: dose 2.5-15 µM
# THP-1 [37] = assay: Induction of lipid efflux in human THP-1 cells assessed as upregulation of LXRalpha mRNA expression by qRT-PCR analysis; assay type: functional, cell-based; conditions: dose 2.5-15 µM, DDE = dose-dependent effect
# HepG2 [38] = assay: Downregulation of SREBP2 protein expression in human HepG2 cells at 2.5 to 15 uM by Western blot analysis; assay type: functional, cell-based; conditions: dose 2.5-15 µM
# HepG2 [39] = assay: Induction of reverse cholesterol transport in human HepG2 cells assessed as reduction in PCSK9 mRNA expression at 2.5 to 15 uM by qRT-PCR analysis; assay type: functional, cell-based; conditions: dose 2.5-15 µM
# THP-1 [40] = assay: Inhibition of ox-LDL uptake in human THP-1 foam cells assessed as downregulation of CD36 expression by measuring reduction in pERK protein expression at 2.5 to 15 uM by Western blot analysis; assay type: functional, cell-based; conditions: dose 2.5-15 µM
# THP-1 [41] = assay: Inhibition of ox-LDL uptake in human THP-1 foam cells assessed as downregulation of CD36 expression by measuring reduction in phosphorylated p38 protein expression at 2.5 to 15 uM by Western blot analysis; assay type: functional, cell-based; conditions: dose 2.5-15 µM
compound,measurement,setting,value
CC(C)=CCc1ccc(O)c2c1[C@H](c1cc(C)cc3c1O[C@H](C(C)(C)O)CO3)NC2=O,inhibition,THP-1 [1],Active
same,inhibition,THP-1 [2],Dde
same,inhibition,THP-1 [3],Active
same,inhibition,HepG2 [4],Active
same,inhibition,THP-1 [5],Active
same,inhibition,THP-1 [6],Active
same,Activity,HepG2 [7],Dde
same,Activity,HepG2 [8],Active
same,inhibition,THP-1 [9],Active
same,inhibition,THP-1 [10],Active
same,Activity,THP-1 [11],Active
same,Activity,THP-1 [12],Non-Toxic
same,Activity,HepG2 [13],Dde
same,inhibition,THP-1 [14],Active
same,Activity,HepG2 [15],Active
same,Activity,THP-1 [16],Dde
same,Activity,THP-1 [17],Active
same,Activity,HepG2 [18],Dde
same,inhibition,THP-1 [19],Active
same,Activity,HepG2 [20],Dde
same,Activity,HepG2 [21],Active
same,inhibition,THP-1 [22],Active
same,inhibition,THP-1 [23],Active
same,Activity,HepG2 [24],Non-Toxic
same,Activity,HepG2 [25],Dde
same,Activity,HepG2 [26],Dde
same,inhibition,THP-1 [27],Active
same,inhibition,THP-1 [28],Active
same,inhibition,HepG2 [29],Active
same,Activity,HepG2 [30],Dde
same,inhibition,THP-1 [31],Active
same,inhibition,THP-1 [32],Active
same,inhibition,THP-1 [33],Active
same,Activity,HepG2 [34],Active
same,Activity,HepG2 [35],Active
same,inhibition,THP-1 [36],Active
same,Activity,THP-1 [37],Dde
same,Activity,HepG2 [38],Active
same,Activity,HepG2 [39],Active
same,inhibition,THP-1 [40],Active
same,inhibition,THP-1 [41],Active
